Laboratory results: patent US20170196853A1 (AB SCIENCE, priority 2014, published 2017)

Columns and labels:
LYN = LYN (Homo sapiens, UniProt P07948); assay: In vitro enzymatic phosphorylation assay, LYN; type: biochemical
FYN = FYN (Homo sapiens, UniProt P06241); assay: In vitro enzymatic phosphorylation assay, FYN; type: biochemical
Chain of FYN (P06241 whole entry, species assumed): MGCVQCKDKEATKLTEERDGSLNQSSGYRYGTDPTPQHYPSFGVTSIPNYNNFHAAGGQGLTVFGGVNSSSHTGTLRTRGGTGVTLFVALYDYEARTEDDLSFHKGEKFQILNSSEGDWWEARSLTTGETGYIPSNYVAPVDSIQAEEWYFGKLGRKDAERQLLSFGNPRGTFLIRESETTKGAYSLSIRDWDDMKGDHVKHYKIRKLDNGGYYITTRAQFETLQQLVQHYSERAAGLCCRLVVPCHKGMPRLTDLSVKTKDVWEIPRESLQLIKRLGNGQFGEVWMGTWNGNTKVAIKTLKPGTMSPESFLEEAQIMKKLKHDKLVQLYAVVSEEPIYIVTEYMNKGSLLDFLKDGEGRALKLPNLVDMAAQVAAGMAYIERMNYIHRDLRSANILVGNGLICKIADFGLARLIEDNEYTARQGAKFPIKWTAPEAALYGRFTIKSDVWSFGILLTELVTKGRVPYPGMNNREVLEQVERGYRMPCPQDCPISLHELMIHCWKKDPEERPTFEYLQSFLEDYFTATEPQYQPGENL

Chain of LYN (P07948 whole entry, species assumed): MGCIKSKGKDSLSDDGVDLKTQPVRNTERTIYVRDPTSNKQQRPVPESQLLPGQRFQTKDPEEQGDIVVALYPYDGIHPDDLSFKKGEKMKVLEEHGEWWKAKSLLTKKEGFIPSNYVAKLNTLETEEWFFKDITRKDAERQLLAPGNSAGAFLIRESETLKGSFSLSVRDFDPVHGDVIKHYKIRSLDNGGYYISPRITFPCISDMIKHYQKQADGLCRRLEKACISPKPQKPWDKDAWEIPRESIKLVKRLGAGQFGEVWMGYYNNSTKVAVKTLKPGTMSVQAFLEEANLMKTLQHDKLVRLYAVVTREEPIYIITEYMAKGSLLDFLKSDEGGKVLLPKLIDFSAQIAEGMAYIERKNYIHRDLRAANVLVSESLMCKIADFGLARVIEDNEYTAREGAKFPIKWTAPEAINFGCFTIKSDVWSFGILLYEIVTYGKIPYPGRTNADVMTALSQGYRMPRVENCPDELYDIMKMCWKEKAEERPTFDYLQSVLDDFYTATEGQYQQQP

IC50 (LYN): 220 nM
IC50 (FYN): 240 nM
Structure (SMILES): Cc1ccc(NC(=O)c2ccc(CN3CCN(C)CC3)cc2)cc1Nc1nc(-c2cccnc2)cs1 [masitinib, 4-(4-methylpiperazin-1-ylmethyl)-N-[4-methyl-3-(4-pyridin-3y1thiazol-2-ylamino)phenyl]benzamide]
